Source: ChEMBL document CHEMBL1141750, “Phenanthroindolizidine alkaloids from the stems of Ficus septica” (2005)

Tests used:
NUGC = experiment: Cytotoxicity against human NUGC at 10 uM after 3 days by MTS reduction assay; assay type: functional; settings: 72 h
[1] = Cytotoxicity against human HONE1 at 10 uM after 3 days by MTS reduction assay; assay type: functional; settings: HONE1, 72 h

Compound: COc1cc2c3c(c4ccc(OC)c(OC)c4c2cc1OC)C[N@@+]1([O-])CCC[C@@H]1C3
- inhibition at 10 µM (NUGC): 94%
- inhibition at 10 µM [1]: 92%

Compound: COc1cc2c3c(c4ccc(OC)c(OC)c4c2cc1OC)C[C@H]1CCC[N@+]1([O-])C3
- inhibition at 10 µM (NUGC): 93%
- inhibition at 10 µM [1]: 87%

Compound: COc1cc2c3c(c4cc(OC)c(OC)cc4c2cc1OC)CN1CCC[C@@H]1C3 [TYLOPHORINE]
- inhibition at 10 µM (NUGC): 85%
- inhibition at 10 µM [1]: 80%
